Measurements reported in ChEMBL document CHEMBL1150831, “Immunosuppressive sesquiterpene alkaloids from Tripterygium wilfordii” (2001).

How the values were obtained:
Type in all cases: functional
[1] = system: PBMC; test: Immunosuppressive activity in human PBMC assessed as inhibition of LPS-stimulated TNFalpha production at 0.3 ug/mL after 18 to 24 hrs by ELISA
[2] = system: PBMC; test: Immunosuppressive activity in human PBMC assessed as inhibition of LPS-stimulated IL1-beta production at 0.3 ug/mL after 18 to 24 hrs by ELISA
[3] = system: PBMC; test: Immunosuppressive activity in human PBMC assessed as inhibition of LPS-stimulated IL8 production at 0.3 ug/mL after 18 to 24 hrs by ELISA
[4] = system: PBMC; test: Immunosuppressive activity in human PBMC assessed as inhibition of LPS-stimulated IL2 production at 0.3 ug/mL after 18 to 24 hrs by ELISA
[5] = system: PBMC; test: Immunosuppressive activity in human PBMC assessed as inhibition of LPS-stimulated IL4 production at 0.3 ug/mL after 18 to 24 hrs by ELISA
[6] = system: PBMC; test: Immunosuppressive activity in human PBMC assessed as inhibition of LPS-stimulated IFN-gamma production at 0.3 ug/mL after 18 to 24 hrs by ELISA
[7] = system: PBMC; test: Immunosuppressive activity in human PBMC assessed as inhibition of LPS-stimulated TNFalpha production at 10 ug/mL after 18 to 24 hrs by ELISA
[8] = system: PBMC; test: Immunosuppressive activity in human PBMC assessed as inhibition of LPS-stimulated IL1-beta production at 10 ug/mL after 18 to 24 hrs by ELISA
[9] = system: PBMC; test: Immunosuppressive activity in human PBMC assessed as inhibition of LPS-stimulated IL8 production at 10 ug/mL after 18 to 24 hrs by ELISA
[10] = system: PBMC; test: Immunosuppressive activity in human PBMC assessed as inhibition of LPS-stimulated IL2 production at 10 ug/mL after 18 to 24 hrs by ELISA
[11] = system: PBMC; test: Immunosuppressive activity in human PBMC assessed as inhibition of LPS-stimulated IL4 production at 10 ug/mL after 18 to 24 hrs by ELISA
[12] = system: PBMC; test: Immunosuppressive activity in human PBMC assessed as inhibition of LPS-stimulated IFN-gamma production at 10 ug/mL after 18 to 24 hrs by ELISA

Structure (SMILES) | inhibition at 0.3 µg/mL [1] | inhibition at 0.3 µg/mL [2] | inhibition at 0.3 µg/mL [3] | inhibition at 0.3 µg/mL [4] | inhibition at 0.3 µg/mL [5] | inhibition at 0.3 µg/mL [6] | inhibition at 10 µg/mL [7] | inhibition at 10 µg/mL [8] | inhibition at 10 µg/mL [9] | inhibition at 10 µg/mL [10] | inhibition at 10 µg/mL [11] | inhibition at 10 µg/mL [12]
C[C@]12C=CC(=O)C=C1CC[C@@H]1[C@@H]2[C@@H](O)C[C@@]2(C)[C@H]1CC[C@]2(O)C(=O)CO [PREDNISOLONE] | 52% | 68% | 15% | 65% | 76% | 75% | – | – | – | – | – | –
COC(=O)C[C@@H]1C(=O)CCC(C)C(=O)O[C@@H]2[C@@H]3[C@@H](OC(C)=O)[C@@]45O[C@@]3(C)COC(=O)c3cccnc3C(C)C(C)C(=O)O[C@@H]([C@H](OC(C)=O)[C@H](OC(C)=O)[C@@]4(COC1=O)[C@@H]2OC(C)=O)[C@]5(C)O (some centres not stated) [TRIPTONINE A] | – | – | – | – | – | – | 62% | 55% | 43% | 33% | -20% | 17%
